Key:
Assay in all cases: Test H postemergence, mixtures of Cpd. No. 20 with atrazine or glyphosate
Type in all cases: in vivo
[1] = system: corn (ZEAMD; Zea mays, cv. ‘Pioneer 1184’)
Text: (§1) This test evaluated the effect of mixtures of Cpd. No. 20 with atrazine or glyphosate on several plant species. Seeds of plant species selected from corn (ZEAMD; Zea mays, cv. ‘Pioneer 1184’), soybean (GLXMA; Glycine max, cv. Pioneer 35T58), giant foxtail (SETFA; Setaria faberi), Surinamgrass (BRADC; Brachiaria decumbens), fall panicum (PANDI; Panicum dichotomiflorum), velvetleaf (ABUTH; Abutilon threophrasti), mare's tail (ERICA; Conyza canadensis), barnyardgrass (ECHCG; Echinochloa crus-galli), large crabgrass (DIGSA; Digitaria sanguinalis), palmer amaranth (AMAPA; Amaranthus palmeri), common waterhemp (AMATU; Amaranthus rudis), E. black nightshade (SOLPT; Solanum ptycanthum), and common ragweed (AMBEL; Ambrosia artemisiifolia) were planted in pots containing Redi-Earth® planting medium (Scotts Company, 14111 Scottslawn Road, Marysville, Ohio 43041) comprising spaghnum peat moss, vermiculite, wetting agent and starter nutrients and treated postemergence using test chemicals formulated in a non-phytotoxic solvent mixture which included a surfactant. Plants ranged in height from 2 to 10 cm and were in the one- to two-leaf stage for the postemergence treatment. Treated plants and untreated controls were maintained in a greenhouse for approximately 14 d, after which time all treated plants were compared to untreated controls and visually evaluated for injury. Plant response ratings, summarized in Tables H1 & H2, are based on a 0 to 100 scale where 0 is no effect and 100 is complete control. A dash (-) response means no test result. Test results are presented as a mean of 4 reps.

[2] = system: mare's tail (ERICA; Conyza canadensis)
Text: as §1

[3] = system: velvetleaf (ABUTH; Abutilon threophrasti)
Text: as §1

[4] = system: large crabgrass (DIGSA; Digitaria sanguinalis)
Text: as §1

[5] = system: Surinamgrass (BRADC; Brachiaria decumbens)
Text: as §1

[6] = system: barnyardgrass (ECHCG; Echinochloa crus-galli)
Text: as §1

[7] = system: palmer amaranth (AMAPA; Amaranthus palmeri)
Text: as §1

[8] = system: E. black nightshade (SOLPT; Solanum ptycanthum)
Text: as §1

[9] = system: common waterhemp (AMATU; Amaranthus rudis)
Text: as §1

[10] = system: giant foxtail (SETFA; Setaria faberi)
Text: as §1

[11] = system: common ragweed (AMBEL; Ambrosia artemisiifolia)
Text: as §1

[12] = system: soybean (GLXMA; Glycine max, cv. Pioneer 35T58)
Text: as §1

[13] = system: fall panicum (PANDI; Panicum dichotomiflorum)
Text: as §1

O=C(O)CNCP(=O)(O)O [Glyphosate, glyphosate]
Observed result (plant response rating), ZEAMD ([1]; applied alone at 62 g a.i./ha): 68
Observed result (plant response rating), ZEAMD ([1]; applied alone at 125 g a.i./ha): 74
Observed result (plant response rating), ERICA ([2]; applied alone at 62 g a.i./ha): 0
Observed result (plant response rating), ERICA ([2]; applied alone at 125 g a.i./ha): 0
Observed result (plant response rating), ABUTH ([3]; applied alone at 62 g a.i./ha): 0
Observed result (plant response rating), ABUTH ([3]; applied alone at 125 g a.i./ha): 15
Observed result (plant response rating), DIGSA ([4]; applied alone at 62 g a.i./ha): 86
Observed result (plant response rating), DIGSA ([4]; applied alone at 125 g a.i./ha): 90
Observed result (plant response rating), BRADC ([5]; applied alone at 62 g a.i./ha): 68
Observed result (plant response rating), BRADC ([5]; applied alone at 125 g a.i./ha): 69
Observed result (plant response rating), ECHCG ([6]; applied alone at 62 g a.i./ha): 6
Observed result (plant response rating), ECHCG ([6]; applied alone at 125 g a.i./ha): 31
Observed result (plant response rating), AMAPA ([7]; applied alone at 62 g a.i./ha): 43
Observed result (plant response rating), AMAPA ([7]; applied alone at 125 g a.i./ha): 23
Observed result (plant response rating), SOLPT ([8]; applied alone at 62 g a.i./ha): 43
Observed result (plant response rating), SOLPT ([8]; applied alone at 125 g a.i./ha): 51
Observed result (plant response rating), AMATU ([9]; applied alone at 62 g a.i./ha): 11
Observed result (plant response rating), AMATU ([9]; applied alone at 125 g a.i./ha): 25
Observed result (plant response rating), SETFA ([10]; applied alone at 62 g a.i./ha): 74
Observed result (plant response rating), SETFA ([10]; applied alone at 125 g a.i./ha): 75
Observed result (plant response rating), AMBEL ([11]; applied alone at 62 g a.i./ha): 68
Observed result (plant response rating), AMBEL ([11]; applied alone at 125 g a.i./ha): 84
Observed result (plant response rating), GLXMA ([12]; applied alone at 62 g a.i./ha): 10
Observed result (plant response rating), GLXMA ([12]; applied alone at 125 g a.i./ha): 25
Observed result (plant response rating), PANDI ([13]; applied alone at 62 g a.i./ha): 28
Observed result (plant response rating), PANDI ([13]; applied alone at 125 g a.i./ha): 51

Source: patent publication US12435044B2, “Pyridazinone herbicides and pyridazinone intermediates used to prepare a herbicide” (FMC Corporation, priority 2018, dated 2025)
